Marks after values point to notes of the source that are not given here.
How the values were obtained:
[1] = test system: monocytes; test: Monokine production in monocyte culture supernatants with and without NS-398; type: cell-based, human; conditions: monocytes of healthy controls and pre-diabetic population
Description: The monocyte production of the monokines IL-1β, TNFα, IL-1RA, and IL-10 in culture supernatants from healthy controls and the pre-diabetic population in the presence and absence of the PGS-2-specific inhibitor, NS-398, have been evaluated. […] It has also been determined that, despite enhanced levels of PGS-2 and PGE2 in diabetic and pre-diabetic individuals, there is no corresponding increase in IL-10. […] Therefore, a further aspect of the subject invention is a method for detecting evidence of autoimmune disease, particularly diabetes, which comprises evaluating monocytes to determine if those monocytes have a reduced response to IL-10 with regard to PGS-2 expression. Such reduced response would be evidence of disease. In accordance with these findings, compounds that inhibit prostaglandin production can be used to modulate the production of anti-inflammatory monokines in order to limit the immune response. The spontaneous expression of PGS-2 and the production of PGE2 by pre-diabetic monocytes may influence their function, limiting their ability to produce monokines that would have a potent effect on limiting the autoimmune response to the β-cells of the islet and therefore would promote the progression to diabetes.

[2] = test system: monocytes; test: PGE2 production by monocytes, specific ELISA; type: cell-based, human
Description: In addition to the expression of PGS-2, the production of PGE2 by monocytes from these same control and autoimmune individuals was examined.

[3] = test system: NOD mice; test: Incidence of diabetes in NOD mice treated through drinking water; type: in vivo, mouse
Description: Blocking the activity of PGS-2 with drugs that reduce PG production can be used to prevent or slow the development of IDD disease. When NOD mice with established, active autoimmune disease are treated through their drinking water with a combination of drugs, including a PGS-1/PGS-2 inhibitor, low dose indomethacin (3 μg/ml), in conjunction with an inducible nitric oxide synthase (iNOS) inhibitor, aminoguanidine, which potentiates the effects of indomethacin, the incidence of diabetes in NOD mice drops by 42% in comparison to control animals and animals treated with either low dose indomethacin or aminoguanidine alone.
Treatment of NOD mice at a time when autoimmunity is in its final stages with high doses (15 μg/ml) of indomethacin alone reduces the incidence of diabetes from 77% to 22%.

[4] = test system: PGS-2 mRNA; test: PGS-2 mRNA expression in monocytes by RT-PCR; type: cell-based, human
Description: RT-PCR detection of PGS-2 mRNA in human monocytes. Human peripheral blood is collected in sterile green top 10 ml tubes. Assays are preferably performed with 5 ml or more of blood. The blood is then centrifuged on a ficoll gradient for 30 minutes at 1500 rpm. Monocytes are isolated to >80% purity by adherence for 2 hours to a plastic culture surface. Cells are then cultured overnight in RMPI-1640 plus endotoxin-free fetal calf sera. The cells are harvested after 16 hours of culture by cold Ca^++/Mg^++-free PBS, the cells are counted, and viability is assessed. Monocytes cultured in 10 μg/ml LPS serve as a positive control for each sample tested. The poly mRNA is then harvested from a standard 10^5 monocytes using a kit (Quiagen). The mRNA is then reverse transcribed in a standard reaction mixture. The cDNA is then amplified by PGS-2-specific primers designed by our laboratory using a standard […] for 45 cycles. The PCR product is then run out on agarose gels with known standards and the size confirmed. β-actin is used as an internal control in these reactions. The identity of RT-PCR products were confirmed by size and Southern blotting using a PGS-2-specific labeled internal probe.
Monocytes were examined from ICA+ humans with a high risk of developing IDD, individuals with established SLE and autoimmune thyroid disease, and healthy controls. A portion of the pre-diabetic ICA+ individuals examined are enrolled in an IDD trial where they receive daily subcutaneous insulin as a preventative therapy. Monocytes of humans without autoimmune disease infrequently express PGS-2 mRNA (12%), whereas monocytes from subjects who are at high risk for the development of IDD express PGS-2 at a highly significant frequency (84%, p<0.0001).

[5] = test system: monocytes; test: TNFα and IL-1β in supernatants of monocytes cultured 24 hours; type: cell-based, human; conditions: monocytes cultured in vitro 24 hours
Description: The expression of PGS-2 can be induced by several factors including cytokines produced by monocytes such as TNFα and IL-1β. To evaluate the possibility that monocytes of pre-IDD subjects produce large quantities of IL-1 and TNFα which induces PGS-2, the levels of these cytokines were measured in supernatants of monocytes cultured in vitro for 24 hours from pre-IDD and healthy controls. […] The lower levels of these cytokines is consistent with the constitutive production of prostaglandins which suppress the production of both TNFα and IL-1β.

[6] = test system: NOD mice; test: PGE2 production by monocytes of NOD mice after IL-10 administration; type: in vivo, mouse; conditions: administration of IL-10

## CS(=O)(=O)Nc1ccc([N+](=O)[O-])cc1OC1CCCCC1 [NS-398]
[1]
  production of IL-1RA: promotes the production
  production of IL-10: promotes the production
[2]; monocytes of control and autoimmune individuals, FIG. 1
  production of PGE2: completely blocked
[2]; monocytes of individuals at high risk for IDD
  PGS-2 production in vitro: effectively blocks all PGS-2 production

## COc1ccc2c(c1)c(CC(=O)O)c(C)n2C(=O)c1ccc(Cl)cc1 [indomethacin]
[3]; NOD mice treated at an early stage of disease
  development of IDD: effectively blocks the development of IDD
[3]; NOD mice, autoimmunity in final stages, indomethacin alone 15 μg/ml, untreated 77%
  incidence of diabetes: 22%

## insulin
[4]; ICA+ pre-IDD subjects, insulin-treated, Table 6
  % PGS-2 +: 73.6** %
[4]; ICA+ subjects on daily subcutaneous preventative insulin, Table 2
  % Positive (PGS-2 mRNA): 71%
[4]; preventative insulin therapy in ICA+ subjects
  PGS-2 mRNA or protein expression: does not appear to affect
[5]
  TNFα and IL-1β levels, insulin-treated versus untreated pre-IDD: no significant differences
[2]; monocytes of ICA+/PGS-2+ subjects on insulin therapy
  PGE2: 5805 ± 1544 pg/mL

B1: IL-10: monokine that tends to downregulate inflammation and immune responses (protein, UniProt P22301 19-178, looked up)
Interleukin-10: SPGQGTQSENSCTHFPGNLPNMLRDLRDAFSRVKTFFQMKDQLDNLLLKESLLEDFKGYLGCQALSEMIQFYLEEVMPQAENQDPDIKAHVNSLGENLKTLRLRLRRCHRFLPCENKSKAVEQVKNAFNKLQEKGIYKAMSEFDIFINYIEAYMTMKIRN
[6]
  PGE2 production by monocytes: does not inhibit PGE2 production
